Data reported in patent US10780090B2, “Heteroaryl compounds useful as inhibitors of SUMO activating enzyme” (Millennium Pharmaceuticals, Inc., priority 2014, dated 2020).

Biological target: recombinant human SAE enzyme (Homo sapiens (Human), UniProt Q9UBT2)
Test: SAE HTRF enzyme assay
Type: biochemical
Conditions: for inhibition at 0.111 µM: read-out: Percent Inhibition
Method: Example 215: SAE HTRF enzyme assay
The SAE enzymatic reaction totals 50 μl and contains 50 mM HEPES Hemisodium (pH 7.5), 0.05% BSA, 5 mM MgCl2, 0.5 μM ATP, 250 μM GSH, 0.01 μM Ubc9-GST, 0.125 μM Sumo-Flag and 0.11 nM recombinant human SAE enzyme. The enzymatic reaction mixture, with and without inhibitor, Is incubated at 24° C. for 105 min in a 384-well plate before termination with […] of Stop/Detection buffer (0.1M HEPES Hemisodium pH 7.5, 0.05% Tween20, 20 mM EDTA, 410 mM KF, 0.53 nM Europium-Cryptate labeled monoclonal anti-Flag M2 Antibody (CisBio International) and 8.125 μg/ml PHYCOLINK goat anti-GST allophycocyanin (XL-APC) antibody (Prozyme)). After incubation for 2 hours at 24° C., quantification of FRET is performed on the Pherostar™ (BMG Labtech). Percentage inhibition values at a single concentration or enzyme inhibition (IC50) values are determined from those curves. One skilled in the art will appreciate that the values generated either as percentage inhibition at a single concentration or IC50 values are subject to experimental variation.

[1] = SAE inhibition at compound concentration 0.111 μM
[2] = SAE inhibition, class symbols, legend in nM

recombinant human SAE enzyme, sequence (Q9UBT2 whole entry): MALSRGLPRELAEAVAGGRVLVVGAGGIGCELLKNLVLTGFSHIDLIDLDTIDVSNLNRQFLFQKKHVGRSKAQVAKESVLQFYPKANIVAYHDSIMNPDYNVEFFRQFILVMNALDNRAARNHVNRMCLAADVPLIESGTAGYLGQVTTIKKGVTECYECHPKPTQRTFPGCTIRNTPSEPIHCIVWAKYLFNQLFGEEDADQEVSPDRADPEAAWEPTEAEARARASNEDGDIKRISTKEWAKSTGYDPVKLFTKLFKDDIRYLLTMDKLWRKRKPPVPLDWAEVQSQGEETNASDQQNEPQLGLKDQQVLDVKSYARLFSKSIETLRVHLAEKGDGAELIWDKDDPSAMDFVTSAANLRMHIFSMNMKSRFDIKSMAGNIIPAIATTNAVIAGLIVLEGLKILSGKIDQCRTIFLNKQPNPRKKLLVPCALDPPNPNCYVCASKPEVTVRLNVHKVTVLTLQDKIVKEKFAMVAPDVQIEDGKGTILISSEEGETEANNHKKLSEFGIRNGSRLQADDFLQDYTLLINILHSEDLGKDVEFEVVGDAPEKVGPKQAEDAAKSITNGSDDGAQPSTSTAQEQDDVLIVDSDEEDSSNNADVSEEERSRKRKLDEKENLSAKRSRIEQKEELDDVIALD
recombinant human SAE enzyme, sequence (Q9UBE0 whole entry partner): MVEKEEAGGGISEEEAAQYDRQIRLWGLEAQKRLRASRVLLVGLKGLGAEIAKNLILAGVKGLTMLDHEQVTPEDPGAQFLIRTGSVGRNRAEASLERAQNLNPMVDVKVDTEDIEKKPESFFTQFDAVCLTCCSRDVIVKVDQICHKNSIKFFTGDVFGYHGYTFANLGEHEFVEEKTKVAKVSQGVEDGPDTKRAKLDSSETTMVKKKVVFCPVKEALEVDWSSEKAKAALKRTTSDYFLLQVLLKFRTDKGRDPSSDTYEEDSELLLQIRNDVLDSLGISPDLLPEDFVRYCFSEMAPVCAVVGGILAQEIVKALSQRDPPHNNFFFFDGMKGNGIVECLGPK

| SMILES | Percent Inhibition (Concentration 0.111 μM) | IC50 (class symbols A/B/C) | Percent Inhibition [1] | IC50 [2] | inhibition at 0.111 µM (Concentration 0.111 μM) |
| --- | --- | --- | --- | --- | --- |
| CC(O)(c1cccc(Cl)c1)c1ccc(C(=O)c2cncnc2NC2CC(O)C(COS(N)(=O)=O)C2)s1 (mixture of isomers) [I-152, [(1R,2S,4R)-4-{[5-({5-[(1R)-1-(3-chlorophenyl)-1-hydroxyethyl]-2-thienyl}carbonyl)pyrimidin-4-yl]amino}-2-hydroxycyclopentyl]methyl sulfamate and [(1R,2S,4R)-4-{[5-({5-[(1S)-1-(3-chlorophenyl)-1-hydroxyethyl]-2-thienyl}carbonyl)pyrimidin-4-yl]amino}-2-hydroxycyclopentyl]methyl sulfamate] | 93 | < 10 nM |  |  |  |
| C[C@](O)(c1csc(C(=O)c2cncnc2N[C@@H]2C[C@H](COS(N)(=O)=O)[C@@H](O)[C@H]2O)c1)c1cccc(Br)n1 (single isomer, unassigned) [I-1b, [(1R,2R,3S,4R)-4-{[5-({4-[(1S)-1-(6-bromopyridin-2-yl)-1-hydroxyethyl]-2-thienyl}carbonyl)pyrimidin-4-yl]amino}-2,3-dihydroxycyclopentyl]methyl sulfamate or [(1R,2R,3S,4R)-4-{[5-({4-[(1R)-1-(6-bromopyridin-2-yl)-1-hydroxyethyl]-2-thienyl}carbonyl)pyrimidin-4-yl]amino}-2,3-dihydroxycyclopentyl]methyl sulfamate] | 100 | < 10 nM |  |  |  |
| NS(=O)(=O)OC[C@H]1C[C@@H](Nc2ncncc2C(=O)c2cc([C@@H]3NCCc4ccc(Cl)cc43)c(Cl)o2)C[C@@H]1O (single isomer, unassigned) [I-299b, {(1R,2S,4R)-4-[(5-{5-chloro-4-[(1R)-7-chloro-1,2,3,4-tetrahydroisoquinolin-1-yl]-2-furoyl}pyrimidin-4-yl)amino]-2-hydroxycyclopentyl}methyl sulfamate or {(1R,2S,4R)-4-[(5-{5-chloro-4-[(1S)-7-chloro-1,2,3,4-tetrahydroisoquinolin-1-yl]-2-furoyl}pyrimidin-4-yl)amino]-2-hydroxycyclopentyl}methyl sulfamate] |  |  | 93% | < 10 nM |  |
| CC(C)(C)OC(=O)N1CCc2ccc(Cl)cc2[C@@H]1c1cc(C(=O)c2cncnc2N[C@@H]2C[C@H](COS(N)(=O)=O)[C@@H](O)C2)sc1Cl.CC(C)(C)OC(=O)N1CCc2ccc(Cl)cc2[C@H]1c1cc(C(=O)c2cncnc2N[C@@H]2C[C@H](COS(N)(=O)=O)[C@@H](O)C2)sc1Cl (mixture of isomers) [I-336, tert-butyl (1R)-7-chloro-1-(2-chloro-5-{[4-({(1R,3S,4R)-3-hydroxy-4-[(sulfamoyloxy)methyl]cyclopentyl}amino)pyrimidin-5-yl]carbonyl}-3-thienyl)-3,4-dihydroisoquinoline-2(1H)-carboxylate and tert-butyl (1S)-7-chloro-1-(2-chloro-5-{[4-({(1R,3S,4R)-3-hydroxy-4-[(sulfamoyloxy)methyl]cyclopentyl}amino)pyrimidin-5-yl]carbonyl}-3-thienyl)-3,4-dihydroisoquinoline-2(1H)-carboxylate] |  |  | 15% | 100 to 1000 nM |  |
| NS(=O)(=O)OC[C@H]1C[C@@H](Nc2ncncc2C(=O)c2cc([C@@H]3OCCCc4ccc(Cl)cc43)cs2)C[C@@H]1O (single isomer, unassigned) [I-314b, [(1R,2S,4R)-4-{[5-({4-[(1R)-8-chloro-1,3,4,5-tetrahydro-2-benzoxepin-1-yl]-2-thienyl}carbonyl)pyrimidin-4-yl]amino}-2-hydroxycyclopentyl]methyl sulfamate or [(1R,2S,4R)-4-{[5-({4-[(1S)-8-chloro-1,3,4,5-tetrahydro-2-benzoxepin-1-yl]-2-thienyl}carbonyl)pyrimidin-4-yl]amino}-2-hydroxycyclopentyl]methyl sulfamate] |  |  | 98% | < 10 nM |  |
| NS(=O)(=O)OCC1CC(Nc2ncncc2C(=O)c2cc(C(O)c3cccc(Cl)n3)cs2)CC1O (mixture of isomers) [I-29, [(1R,2S,4R)-4-({5-[{4-[(S)-(6-Chloropyridin-2-yl)(hydroxy)methyl]-2-thienyl}carbonyl)pyrimidin-4-yl]amino}-2-hydroxycyclopentyl]methyl sulfamate and [(1R,2S,4R)-4-{[5-({4-[(R)-(6-Chloropyridin-2-yl)(hydroxy)methyl]-2-thienyl}carbonyl)pyrimidin-4-yl]amino}-2-hydroxycyclopentyl]methyl sulfamate] | 100 | < 10 nM |  |  |  |
| Cc1oc(C(=O)c2cncnc2N[C@@H]2C[C@H](COS(N)(=O)=O)[C@@H](O)C2)cc1[C@@H]1OCCc2ccc(Cl)cc21 (single isomer, unassigned) [I-270b, {(1R,2S,4R)-4-[(5-{4-[(1R)-7-chloro-3,4-dihydro-1H-isochromen-1-yl]-5-methyl-2-furoyl}pyrimidin-4-yl)amino]-2-hydroxycyclopentyl}methyl sulfamate or {(1R,2S,4R)-4-[(5-{4-[(1S)-7-chloro-3,4-dihydro-1H-isochromen-1-yl]-5-methyl-2-furoyl}pyrimidin-4-yl)amino]-2-hydroxycyclopentyl}methyl sulfamate] | 99 | < 10 nM |  |  |  |
| COc1ccc2c(c1)[C@H](c1cc(C(=O)c3cncnc3N[C@@H]3C[C@H](COS(N)(=O)=O)[C@@H](O)C3)sc1C)OCC2 (mixture of isomers) [I-341, [(1R,2S,4R)-2-hydroxy-4-{[5-({4-[(1R)-7-methoxy-3,4-dihydro-1H-isochromen-1-yl]-5-methyl-2-thienyl}carbonyl)pyrimidin-4-yl]amino}cyclopentyl]methyl sulfamate and [(1R,2S,4R)-2-hydroxy-4-{[5-({4-[(1S)-7-methoxy-3,4-dihydro-1H-isochromen-1-yl]-5-methyl-2-thienyl}carbonyl)pyrimidin-4-yl]amino}cyclopentyl]methyl sulfamate] |  |  | 10% | 100 to 1000 nM |  |
| Cc1sc(C(=O)c2cncnc2NC2CC(O)C(COS(N)(=O)=O)C2)cc1C1OCCc2ccccc21 (mixture of isomers) [I-256, [(1R,2S,4R)-4-{[5-({4-[(1R)-3,4-dihydro-1H-isochromen-1-yl]-5-methyl-2-thienyl}carbonyl)pyrimidin-4-yl]amino}-2-hydroxycyclopentyl]methyl sulfamate and [(1R,2S,4R)-4-{[5-({4-[(1S)-3,4-dihydro-1H-isochromen-1-yl]-5-methyl-2-thienyl}carbonyl)pyrimidin-4-yl]amino}-2-hydroxycyclopentyl]methyl sulfamate] | 100 | < 10 nM |  |  |  |
| CN(Cc1csc(C(=O)c2cncnc2N[C@@H]2C[C@H](COS(N)(=O)=O)[C@@H](O)C2)c1)c1cccc(Cl)c1 [I-138, [(1R,2S,4R)-4-({5-[(4-{[(3-Chlorophenyl)(methyl)amino]methyl}-2-thienyl)carbonyl]pyrimidin-4-yl}amino)-2-hydroxycyclopentyl]methyl sulfamate] |  | < 10 nM |  |  | 96% |
| C[C@@H]1CCCN(Cc2csc(C(=O)c3cncnc3N[C@@H]3C[C@H](COS(N)(=O)=O)[C@@H](O)C3)c2)C1 (mixture of isomers) [I-225, [(1R,2S,4R)-2-hydroxy-4-({5-[(4-{[(3R)-3-methylpiperidin-1-yl]methyl}-2-thienyl)carbonyl]pyrimidin-4-yl}amino)cyclopentyl]methyl sulfamate and [(1R,2S,4R)-2-hydroxy-4-({5-[(4-{[(3S)-3-methylpiperidin-1-yl]methyl}-2-thienyl)carbonyl]pyrimidin-4-yl}amino)cyclopentyl]methyl sulfamate] | 33 | 100 to 1000 nM |  |  |  |
| NS(=O)(=O)OC[C@H]1C[C@@H](Nc2ncncc2C(=O)c2cc(COc3ccc(Cl)cc3)cs2)C[C@@H]1O [I-163, [(1R,2S,4R)-4-{[5-({4-[(4-chlorophenoxy)methyl]-2-thienyl}carbonyl)pyrimidin-4-yl]amino}-2-hydroxycyclopentyl]methyl sulfamate] |  | 10 to 100 nM |  |  | 92% |
| N[C@@H](c1cccc(Br)n1)c1cc(C(=O)c2cncnc2N[C@@H]2C[C@H](COS(N)(=O)=O)[C@@H](O)C2)sc1Cl (single isomer, unassigned) [I-18a, [(1R,2S,4R)-4-{[5-({4-[(R)-amino(6-bromopyridin-2-yl)methyl]-5-chloro-2-thienyl}carbonyl)pyrimidin-4-yl]amino}-2-hydroxycyclopentyl]methyl sulfamate or [(1R,2S,4R)-4-{[5-({4-[(S)-amino(6-bromopyridin-2-yl)methyl]-5-chloro-2-thienyl}carbonyl)pyrimidin-4-yl]amino}-2-hydroxycyclopentyl]methyl sulfamate] | 82 | 10 to 100 nM |  |  |  |
| Cc1sc(C(=O)c2cncnc2N[C@@H]2C[C@H](COS(N)(=O)=O)[C@@H](O)C2)cc1[C@H]1OCC(F)(F)c2ccc(Cl)nc21 (single isomer, unassigned) [I-260a, [(1R,2S,4R)-4-{[5-({4-[(8R)-2-chloro-5,5-difluoro-5,8-dihydro-6H-pyrano[3,4-b]pyridin-8-yl]-5-methyl-2-thienyl}carbonyl)pyrimidin-4-yl]amino}-2-hydroxycyclopentyl]methyl sulfamate or [(1R,2S,4R)-4-{[5-({4-[(8S)-2-chloro-5,5-difluoro-5,8-dihydro-6H-pyrano[3,4-b]pyridin-8-yl]-5-methyl-2-thienyl}carbonyl)pyrimidin-4-yl]amino}-2-hydroxycyclopentyl]methyl sulfamate] | 99 | < 10 nM |  |  |  |
